According to patent publication US6911469B2, “Sulfonamide compounds and pharmaceutical use thereof” (Fujisawa Pharmaceutical Co., Ltd., priority 1997, dated 2005):

Structure (SMILES)	melting point [°C]
CCCCCS(=O)(=O)NC(=O)c1ccc2nc(C)n(Cc3ccc(C(F)(F)F)cc3Cl)c2n1 [Example 102-2, 3-[2-chloro-4-(trifluoromethyl)-benzyl]-2-methyl-5-(1-pentanesulfonylcarbamoyl)-3H-imidazo[4,5-b]pyridine]	154 to 155
CCCCCS(=O)(=O)NC(=O)c1cc(C)c2nc(C)n(Cc3ccc4ccccc4c3Br)c2n1 [Example 104-1, 3-(1-bromonaphthalen-2-ylmethyl)-2,7-dimethyl-5-(pentanesulfonylcarbamoyl)-3H-imidazo[4,5-b]pyridine]	210 to 211
Cc1cc(C(=O)NS(=O)(=O)c2ccccc2)nc2c1nc(C)n2Cc1ccc2ccccc2c1Br [Example 104-2, 5-(benzenesulfonylcarbamoyl)-3-(1-bromonaphthalen-2-ylmethyl)-2,7-dimethyl-3H-imidazo[4,5-b]pyridine]	229 to 230
Cc1cc(C(=O)NS(=O)(=O)/C=C/c2ccccc2)nc2c1nc(C)n2Cc1ccc2ccccc2c1Br [Example 104-3, (E)-3-(1-bromonaphthalen-2-ylmethyl)-2,7-dimethyl-5-((2-phenylethenyl)sulfonylcarbamoyl)-3H-imidazo[4,5-b]pyridine]	262 to 263
Cc1cc(C(=O)NS(=O)(=O)c2ccc(Cl)s2)nc2c1nc(C)n2Cc1ccc2ccccc2c1Br [Example 104-6, 3-(1-bromonaphthalen-2-ylmethyl)-2,7-dimethyl-5-((5-chlorothiophen-2-yl)sulfonylcarbamoyl)-3H-imidazo[4,5-b]pyridine]	213 to 214
CCCCCS(=O)(=O)NC(=O)c1cc(C)c2nc(C)n(Cc3ccc(Br)cc3Cl)c2n1 [Example 105, 3-(4-bromo-2-chlorobenzyl)-2,7-dimethyl-5-(pentanesulfonylcarbamoyl)-3H-imidazo[4,5-b]pyridine]	148 to 149
Cc1cc(C(=O)NS(=O)(=O)/C=C/c2ccccc2)nc2c1nc(C)n2Cc1ccc(Br)cc1Cl [Example 106-2, (E)-3-(4-bromo-2-chlorobenzyl)-2,7-dimethyl-5-[(2-phenylethenyl)sulfonylcarbamoyl]-3H-imidazo[4,5-b]pyridine]	225 to 227
Cc1cc(C(=O)NS(=O)(=O)c2ccc(Cl)s2)nc2c1nc(C)n2Cc1ccc(Br)cc1Cl [Example 106-3, 3-(4-bromo-2-chlorobenzyl)-5-[(5-chlorothiophen-2-yl)sulfonylcarbamoyl]-2,7-dimethyl-3H-imidazo[4,5-b]pyridine]	214 to 215
Cc1nc2ccc(C(=O)NS(=O)(=O)c3ccccc3)nc2n1Cc1ccc(C#N)cc1Cl [Example 108, 5-(benzenesulfonylcarbamoyl)-3-(2-chloro-4-cyanobenzyl)-2-methyl-3H-imidazo[4,5-b]pyridine]	242 to 243
Cc1nc2ccc(C(=O)NS(=O)(=O)/C=C/c3ccccc3)nc2n1Cc1ccc(C(F)(F)F)cc1Cl [Example 109-1, (E)-3-(2-chloro-4-(trifluoromethyl)benzyl)-2-methyl-5-((2-phenylethenyl)sulfonylcarbamoyl)-3H-imidazo[4,5-b]pyridine]	140 to 142
Cc1nc2ccc(C(=O)NS(=O)(=O)c3ccc(Cl)s3)nc2n1Cc1ccc(C(F)(F)F)cc1Cl [Example 109-3, 3-(2-chloro-4-(trifluoromethyl)-benzyl)-5-((5-chlorothiophen-2-yl)sulfonylcarbamoyl)-2-methyl-3H-imidazo[4,5-b]pyridine]	170 to 171
Cc1nc2ccc(C(=O)NS(=O)(=O)c3ccc(Br)s3)nc2n1Cc1ccc(C(F)(F)F)cc1Cl [Example 109-4, 5-((5-bromothiophen-2-yl)sulfonylcarbamoyl)-3-(2-chloro-4-(trifluoromethyl)benzyl)-2-methyl-3H-imidazo[4,5-b]pyridine]	172 to 173
Cc1cc(C(=O)NS(=O)(=O)c2ccc(Br)s2)nc2c1nc(C)n2Cc1ccc2ccccc2c1Br [Example 112, 3-(1-bromonaphthalen-2-ylmethyl)-5-((5-bromothiophene-2-yl)sulfonylcarbamoyl)-2,7-dimethyl-3H-imidazo[4,5-b]pyridine]	247 to 248
Cc1nc2ccc(C(=O)NS(=O)(=O)c3ccccc3)nc2n1Cc1ccc(CCc2ccccc2)cc1Cl [Example 113, 5-(benzenesulfonylcarbamoyl)-3-(2-chloro-4-(2-phenylethyl)benzyl)-2-methyl-3H-imidazo[4,5-b]pyridine]	180 to 181
Cc1nc2ccc(C(=O)NS(=O)(=O)c3ccccc3)nc2n1Cc1ccc(CO)cc1Cl [Example 115, 5-(Benzenesulfonylcarbamoyl)-3-(2-chloro-4-(hydroxymethyl)benzyl)-2-methyl-3H-imidazo[4,5-b]pyridine]	198 to 199
Cc1nc2ccc(C(=O)NS(=O)(=O)c3ccccc3)nc2n1Cc1ccc(C(=O)O)cc1Cl [Example 116, 5-(benzenesulfonylcarbamoyl)-3-(4-carboxy-2-chlorobenzyl)-2-methyl-3H-imidazo[4,5-b]pyridine]	155 to 160
Cc1nc2ccc(C(=O)NS(=O)(=O)c3ccccc3)nc2n1Cc1ccc(COc2ccccc2)cc1Cl [Example 118, 5-(benzenesulfonylcarbamoyl)-3-(2-chloro-4-((phenyloxy)methyl)-benzyl)-2-methyl-3H-imidazo[4,5-b]pyridine]	203 to 205
CCOC(=O)c1ccc(Cn2c(C)nc3ccc(C(=O)NS(=O)(=O)c4ccccc4)nc32)c(Cl)c1 [Example 119, 5-(benzenesulfonylcarbamoyl)-3-(2-chloro-4-(ethoxycarbonyl)benzyl)-2-methyl-3H-imidazo[4,5-b]pyridine]	196 to 197
CNC(=O)c1ccc(Cn2c(C)nc3ccc(C(=O)NS(=O)(=O)c4ccccc4)nc32)c(Cl)c1 [Example 120, 5-(Benzenesulfonylcarbamoyl)-3-(2-chloro-4-(methylcarbamoyl)benzyl)-2-methyl-3H-imidazo[4,5-b]pyridine]	257 to 260
Cc1cc(C(=O)NS(=O)(=O)c2ccccc2)nc2c1nc(C)n2Cc1ccc(Br)cc1Cl [Example 121, 5-(Benzenesulfonylcarbamoyl)-3-(4-bromo-2-chlorobenzyl)-2,7-dimethyl-3H-imidazo[4,5-b]pyridine]	231 to 232
CSc1ccc(Cn2c(C)nc3ccc(C(=O)NS(=O)(=O)/C=C/c4ccccc4)nc32)c(Cl)c1 [Example 148, 3-(2-chloro-4-(methylthio)benzyl)-2-methyl-5-(E)-[(2-phenylethenyl)sulfonylcarbamoyl]-3H-imidazo[4,5-b]pyridine]	175 to 176
CSc1ccc(Cn2c(C)nc3ccc(C(=O)NS(=O)(=O)c4ccc(Cl)s4)nc32)c(Cl)c1 [Example 149, 3-(2-chloro-4-(methylthio)benzyl)-5-[(5-chlorothiophen-2-yl)sulfonylcarbamoyl]-2-methyl-3H-imidazo[4,5-b]pyridine]	170 to 171
CSc1ccc(Cn2c(C)nc3ccc(C(=O)NS(=O)(=O)c4ccc(Br)s4)nc32)c(Cl)c1 [Example 150, 3-[2-chloro-4-(methylthio)benzyl]-5-[(5-bromothiophen-2-yl)sulfonylcarbamoyl]-2-methyl-3H-imidazo[4,5-b]pyridine]	169 to 170
CCCCCS(=O)(=O)NC(=O)c1ccc2nc(C)n(Cc3ccc(SC)cc3Cl)c2n1 [Example 151, 3-(2-chloro-4-(methylthio)benzyl)-2-methyl-5-(1-pentanesulfonylcarbamoyl)-3H-imidazo[4,5-b]pyridine]	184 to 185
CCCCCS(=O)(=O)NC(=O)c1cc(C)c2nc(C)n(Cc3ccc(-c4ccccc4)cc3Cl)c2n1 [Example 184, 3-(2-chloro-4-phenylbenzyl)-2,7-dimethyl-5-(1-pentanesulfonylcarbamoyl)-3H-imidazo[4,5-b]pyridine]	227 to 228
Cc1cc(C(=O)NS(=O)(=O)c2ccc(Cl)s2)nc2c1nc(C)n2Cc1ccc(-c2ccccc2)cc1Cl [Example 185, 3-(2-chloro-4-phenylbenzyl)-5-[(5-chlorothiophen-2-yl)sulfonylcarbamoyl]-2,7-dimethyl-3H-imidazo[4,5-b]pyridine]	241 to 242
Cc1cc(C(=O)NS(=O)(=O)c2ccc(Br)s2)nc2c1nc(C)n2Cc1ccc(-c2ccccc2)cc1Cl [Example 186, 5-[(5-bromothiophen-2-yl)sulfonylcarbamoyl]-3-(2-chloro-4-phenylbenzyl)-2,7-dimethyl-3H-imidazo[4,5-b]pyridine]	243 to 244
CCCCCS(=O)(=O)NC(=O)c1cc(C)c2nc(C)n(Cc3ccc(-c4cccs4)cc3Cl)c2n1 [Example 188, 3-[2-chloro-4-(thiophen-2-yl)benzyl]-2,7-dimethyl-5-(1-pentanesulfonylcarbamoyl)-3H-imidazo[4,5-b]pyridine]	220 to 224
CCCCCS(=O)(=O)NC(=O)c1cc(C)c2nc(C)n(Cc3ccc(-c4ccc(Cl)s4)cc3Cl)c2n1 [Example 193, 3-[2-chloro-4-(5-chlorothiophen-2-yl)benzyl]-2,7-dimethyl-5-(1-pentanesulfonylcarbamoyl)-3H-imidazo[4,5-b]pyridine]	215 to 217
Cc1cc(C(=O)NS(=O)(=O)/C=C/c2ccccc2)nc2c1nc(C)n2Cc1ccc(-c2ccc(Cl)s2)cc1Cl [Example 196, 3-[2-chloro-4-(5-chlorothiophen-2-yl)benzyl]-2,7-dimethyl-5-[(E)-(2-phenylethenyl)sulfonylcarbamoyl]-3H-imidazo[4,5-b]pyridine]	224 to 225
